Source: ChEMBL document CHEMBL1154672, “Four new cytotoxic oligosaccharidic derivatives of 12-oleanene from Lysimachia heterogenea Klatt” (Bioorg Med Chem Lett, 2009)

What was measured:
Assay type in all cases: functional, cell-based
A549 [1] = experiment: Cytotoxicity against human A549 cells after 2 hrs; details: A549, 2 h
A549 [2] = experiment: Cytotoxicity against human A549 cells after 72 hrs; details: A549, 72 h
A549 [3] = experiment: Cytotoxicity against human A549 cells after 9 hrs; details: A549, 9 h
A549 [4] = experiment: Cytotoxicity against human A549 cells; details: TDE = time-dependent effect

SMILES: CC1(C)CC[C@]2(CO)[C@H](O)C[C@]3(C)C(=CC[C@@H]4[C@@]5(C)CC[C@H](O[C@@H]6OC[C@H](O)[C@H](O)[C@H]6O[C@@H]6O[C@H](CO)[C@@H](O)[C@H](O)[C@H]6O[C@@H]6OC[C@@H](O)[C@H](O)[C@H]6O)[C@@](C)(CO)[C@@H]5CC[C@]43C)[C@H]2C1 [HETERGENOSIDE B]
- IC50 (A549 [1]): 26.4 µM
- IC50 (A549 [2]): 19.1 µM

SMILES: CC1(C)CC[C@]2(CO)[C@H](O)C[C@]3(C)C(=CC[C@@H]4[C@@]5(C)CC[C@H](O[C@@H]6OC[C@H](O)[C@H](O)[C@H]6O[C@@H]6O[C@H](CO)[C@@H](O)[C@H](O)[C@H]6O)[C@@](C)(CO)[C@@H]5CC[C@]43C)[C@H]2C1 [HETEROGENOSIDE A]
- IC50 (A549 [2]): 24.5 µM
- IC50 (A549 [3]): > 100 µM
- Activity (A549 [4]): tde
